Test results as given in paper PMC8802628, “Selective activation of PFKL suppresses the phagocytic oxidative burst” (Cell, 2021).
Where “and” joins values, the source holds several entries; their conditions need not be identical. Equal entries are not always repeated.

How the values were obtained:
human PFKM = biological target: T1, human PFKM (Homo sapiens, UniProt P08237); test: Recombinant PFKM activity assay; format: biochemical; settings: for activation of PFKM: at concentrations up to 100 μM
T1 construct: made in house; host or cells: Sf9 insect cells (baculovirus)
T1 sequence (P08237 1-780): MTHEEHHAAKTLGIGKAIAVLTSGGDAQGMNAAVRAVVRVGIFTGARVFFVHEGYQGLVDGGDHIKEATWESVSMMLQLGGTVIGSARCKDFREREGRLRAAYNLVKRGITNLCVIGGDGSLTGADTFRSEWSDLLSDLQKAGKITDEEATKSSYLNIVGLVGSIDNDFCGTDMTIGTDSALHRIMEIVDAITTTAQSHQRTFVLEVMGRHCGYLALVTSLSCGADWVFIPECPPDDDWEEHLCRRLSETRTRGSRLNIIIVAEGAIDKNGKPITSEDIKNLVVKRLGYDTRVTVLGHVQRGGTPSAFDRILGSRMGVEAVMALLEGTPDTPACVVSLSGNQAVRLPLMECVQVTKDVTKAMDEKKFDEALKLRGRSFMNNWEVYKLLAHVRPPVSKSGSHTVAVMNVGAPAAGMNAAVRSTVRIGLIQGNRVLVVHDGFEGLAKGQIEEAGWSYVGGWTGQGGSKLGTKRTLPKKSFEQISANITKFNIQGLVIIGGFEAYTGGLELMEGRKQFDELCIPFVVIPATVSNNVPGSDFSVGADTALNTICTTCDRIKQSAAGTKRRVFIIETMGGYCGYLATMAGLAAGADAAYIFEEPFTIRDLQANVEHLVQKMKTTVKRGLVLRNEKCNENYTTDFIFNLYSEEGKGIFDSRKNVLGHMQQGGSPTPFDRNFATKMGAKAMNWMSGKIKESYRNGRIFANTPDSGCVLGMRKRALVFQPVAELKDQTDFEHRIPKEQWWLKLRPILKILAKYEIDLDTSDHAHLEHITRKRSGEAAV
From the text: Recombinant N-terminal His-tagged human PFKL (NP_002617), PFKM (NP_000280), and PFKP (NM_002627.4) were generated as described ([Webb et al., 2015], [2017]). Point mutants of PFK1 were generated using the QuikChange Lightning kit (Aligent).
His-tagged PFK1 was expressed and purified as described with slight modifications ([Webb et al., 2015], [2017]). Briefly, baculovirus was generated using the Bac-to-Bac Expression system (Invitrogen). PFK1 was expressed in 2-5 × 10^6 sf9 cells at a multiplicity of infection of two for 48 h. Cells were lysed in 20 mM HEPES, pH 7.5, 80 mM potassium phosphate, 1 mM 2-mercapentoethanol, 10% glycerol, 10 mM imidazole, and EDTA-free Protease Inhibitor Cocktail (Abcam) with a Dounce homogenizer. The soluble lysate was incubated with HisPur cobalt resin (ThermoFisher Scientific). The resin was washed with 5 bead volumes lysis buffer, 10 bead volumes lysis buffer containing 2 M NaCl, and 5 further bead volumes lysis buffer. PFK1 was eluted in lysis buffer containing 100 mM imidazole. Fractions containing protein were pooled, passed over a desalting column equilibrated in freezing buffer [20 mM HEPES pH 7.5, 1 mM DTT, 500 μM ammonium sulfate, 5% glycerol, 1 mM ATP, and 100 μM EDTA] and concentrated using an Amicon Ultracel-30K Centrifugal Filter Unit (MilliporeSigma). Protein was quantified using a Bradford Protein Assay kit (ThermoFisher Scientific), and aliquotes frozen in liquid nitrogen for storage at −80°C.
PFK1 activity was determined using the rate of FBP production via an auxiliary enzyme assay adapted to a 96-well format ([Brüser et al., 2012]; [Webb et al., 2015]). The auxiliary enzymes aldolase, triosephosphate isomerase, and glycerol phosphate dehydrogenase were purchased from MilliporeSigma as ammonium sulfate slurries and desalted using an Amicon Ultracel-10K Centrifugal Filter Unit. For assays containing FBP, the rate of ADP production was determined using the auxiliary enzymes pyruvate kinase (PK) and lactate dehydrogenase (LDH) (MilliporeSigma) in a buffer containing 250 μM phosphoenolpyruvic acid, […] NADH, 50 mM HEPES pH 7.5, 100 mM KCl, 1 mM DTT, and effector concentrations as described in the text. The temperature was equilibrated to 25°C for 5 min before initiating the reaction 10 mM MgCl2. Absorbance at 340 nm was measured using a Varioskan LUX Multimode microplate reader (ThermoFisher). Kinetic parameters were generated by nonlinear regression analysis using Prism (GraphPad Software) and are the mean of a minimum of three measurements from two independent preparations of protein. One unit of activity was defined as the amount of enzyme that catalyzed the formation of 1 μmol of fructose 1,6-bisphosphate per min at 25°C. […]

[1] = system: human peripheral blood neutrophils; test: NETosis assay in human neutrophils (SYTOX Green, DNA area); format: cell-based; settings: for inhibition of PMA-induced NETosis: SAR analogs compared to LDC7559; for fold more potent than LDC7559, inhibition of NETosis: compared to LDC7559
Experimental: Freshly purified neutrophils were plated at 6 × 10^3 cells/well in glass bottom 96-well plates (SensoPlate, Greiner Bio-One 82050-792) in the RPMI medium described above. Cells were pretreated with DMSO vehicle, 0.5 μM NA-11, 100 μM apocynin, 0.5 μM and 5 μM PALP, or 0.5 μM and 5 μM LDC7559 for 30 min, and then stimulated with 50 nM PMA, 1 μM f-MLP, 5 μg/mL cholesterol crystals, 10 μg/mL LPS, 25 μM nigericin, or 25 μM calcymicin (A23187) for 3 h (except in Figures S1A, 6A and S7C, where cells were stimulated for 4 h). Cells were fixed and permeabilized in 2.5% paraformaldehyde (PFA) and 0.02% Triton X-100 in PBS for 30 min. For quantification of NETosis, cells were stained with 150 nM SYTOX Green and imaged in a KEYENCE Fluorescence Microscope (KEYENCE, ZB-X800E) at 10 x magnification. For immunolabeling, fixed cells were blocked with 2% BSA for 1 h, and then stained with anti-CitH3 and anti-MPO antibodies at a dilution of 1/200 in 1% BSA in PBS. Images were taken at 60 x magnification using an ImageXpress Micro Confocal high-content imaging system (Molecular Devices).
Semi-automated analysis of both phase and fluorescence images of SYTOX Green-stained neutrophils used a specialized MATLAB algorithm. Total cells were counted by scoring phase standard deviation and radial symmetry. NETosis was classified in cells by measuring the DNA area in the fluorescence image and comparing with a select internal training set for each experiment. Unstimulated cells and PMA-stimulated, […] cells served as negative controls. PMA-stimulated cells served as a positive control. NET-forming cells are presented as a percentage of total cells.

[2] = PFKM wild type, pH 7.0, 250 μM ATP

Row | SMILES | activation of PFKM (human PFKM) | inhibition of PMA-induced NETosis ([1]; PMA) | fold more potent than LDC7559, inhibition of NETosis [1] | also measured
1 | COc1ccccc1-c1cc2n(n1)Cc1ccc(NC(C)=O)cc1OC2 [LDC7559, reference compound] | failed to activate | inhibited PMA-induced NETosis in a dose-dependent manner |  | ability to inhibit NETosis (activity range) ([1]; neutrophils): low-micromolar range; spontaneous NETosis ([1]; no stimulus): did not prevent spontaneous NETosis
2 | O=C(CO)[C@@H](O)[C@H](O)[C@H](O)COP(=O)(O)O [F6P, fructose 6-phosphate] |  |  |  | Vmax,F6P (human PFKM; [2]): 19.14 ± 0.74 micromoles FBP per minute per milligram PFK1; hF6P (Hill coefficient) (human PFKM; [2]): 4.62 ± 1.38
3 | CC(=O)Nc1ccc2c(c1)OCc1cc(-c3ccccc3)nn1C2 [NA-5] |  |  | ~ 10 fold | 
4 | CC(=O)Nc1ccc2c(c1)OCc1cc(-c3ccccc3C#CCCCO)nn1C2 [NA-11] | failed to activate | inhibiting NOX2-dependent NETosis induced by PMA | ~ 1,000 fold and 1,000 fold | NOX2-dependent NETosis induced by fMLP, LPS, and cholesterol crystals ([1]; 0.5 μM, 4 h stimulation): inhibited NOX2-dependent NETosis; IC50 ([1]; human PMNs, PMA, read-out: IC50, inhibition of PMA-induced NETosis): 4 ± 0.5 nM
